In patent US20190223479A1, “SUGAR-DIPEPTIDE CONJUGATES AS FLAVOR MOLECULES” (NESTEC S.A., priority 2016, published 2019):
Entries after “also recorded” stand apart in the source; their conditions may differ.

Experiments:
[1] = Sensory evaluation by 12 panelists of chicken soup spiked with the compounds; settings: versus un-spiked reference soup; for Flavor property in chicken soup (2 g/l): compound added at 2 g/l
Procedure: Sample preparation: Chicken soups were prepared by dissolving 6 g chicken base powder (detailed recipe shown in Table 1), 1 g monosodium glutamate and 1 g of sodium chloride in 500 mL hot water. The compounds were separately added at 2 g/l and 0.25 g/l.
Sensory protocol: The sensory evaluation was carried out by 12 panelists, previously screened for their sensory abilities. The panelists assessed a maximum of 6 samples per session. They had Vittel water and crackers as mouth cleansers. In all the cases, the panelists were instructed to evaluate the samples on the following attributes: overall flavor persistency, umami, meaty, grilled/popcorn, boiled chicken, sweet, bitter, salty. The samples were coded with random 3-digit numbers according to a balanced presentation design, heated at approximately 65° C. and then presented in 40 ml brown plastic containers and under red light to minimize appearance bias (the serving was approximately 25 ml per sample).

[2] = Sensory comparison by 6 panelists (nose-clips) of soup with sugar conjugate vs equimolar glucose and lysine; settings: 2 g/L (6.49 mmol/L) in soup base versus same molar concentrations of glucose and lysine
Procedure: A first soup was prepared by adding 2 g/L (6.49 mmol/L) 1-deoxy-D-fructosyl-N-Lysine (GluAmadori-Lys2) in the soup base as described above. A second soup was prepared by adding same corresponding molar concentrations of glucose and lysine. The solutions were then evaluated by 6 panelists following the same procedure than described above with using nose-clips.

[3] = Tomato soup seasoning compositions with added compound; settings: 0.5 g/L or 2.5 g/L, versus reference soups without the compounds
Procedure: Tomato soups can be prepared by dissolving 6 g tomato base powder as can be obtained in the commerce in 500 mL hot water. GluAmadori-Lys1 or GluAmadori-Lys2 can then be added at a concentration of 0.5 g/L or 2.5 g/L to the soups in order to improve their taste and flavor profile. […] For example, a similar tomato soup can now be prepared which has the same saltiness as the reference tomato soup but comprising less sodium chloride.

[4] = described by T. Sonntag et al.; cited from earlier work

Compound: 1-deoxy-D-fructosyl-N-Lysine [GluAmadori-Lys2]
- Flavor property in chicken soup (2 g/l) [1]: enhanced saltiness, umaminess and overall flavor persistency
- Sensory differences [2]: more salty and umami
- Taste and flavor profile of tomato soup [3]: more pronounced umami taste as well as being perceived as more salty

Compound: NCCCC[C@H](N)C(=O)O [L-lysine]
- Taste quality [4]: bitter tasting compound

Compound: NCCCC[C@H](NCC1(O)OCC(O)C1O)C(=O)O (stereo partly drawn) [RibAmadori-Lys1, ((2,3,4-trihydroxytetrahydrofuran-2-yl)methyl)lysine]
- Flavor property in chicken soup (2 g/l) [1]: baked and roasted flavors were significantly increased; also recorded: baked, roasted flavor

Compound: N[C@@H](CCCCNCC1(O)OCC(O)C1O)C(=O)O (stereo partly drawn) [RibAmadori-Lys2, N6-((2,3,4-trihydroxytetrahydrofuran-2-yl)methyl)lysine]
- Flavor property in chicken soup (2 g/l) [1]: enhanced roasted flavor

Compound: NCCCC[C@H](NCC1(O)OCC(O)C1O)C(=O)O (stereo partly drawn) [XylAmadori-Lys1, ((2,3,4-trihydroxytetrahydrofuran-2-yl)methyl)lysine]
- Flavor property in chicken soup (0.25 g/l) ([1]; compound added at 0.25 g/l): baked and roasted flavors were significantly increased
- Flavor property in chicken soup (2 g/l) [1]: baked and roasted flavors were significantly increased; also recorded: baked, roasted flavor

Compound: N[C@@H](CCCCNCC1(O)OCC(O)C1O)C(=O)O (stereo partly drawn) [XylAmadori-Lys2, N6-((2,3,4-trihydroxytetrahydrofuran-2-yl)methyl)lysine]
- Flavor property in chicken soup (2 g/l) [1]: enhanced meat flavor
